In patent US5288624A, “Cercosporal fungicide compositions and methods of use” (priority 1987, dated 1994):
In brackets after ≈: the same amount, converted by molar mass.

Key:
Botrytis = test: Combination with herbicides, Botrytis agar plate test; format: cell-based, Botrytis cinerea; details: herbicide applied singly
Staphylococcus aureus = details: Matsueda et al.; cited from earlier work
Bacillus subtilis = details: Matsueda et al.; cited from earlier work
Pseudomonas aeruginosa = details: Matsueda et al.; cited from earlier work
E. coli = details: Matsueda et al.; cited from earlier work
Candida japonica = details: Matsueda et al.; cited from earlier work
certain microorganisms = details: Matsueda et al. 1980; cited from earlier work
Microsporum canis = test: Effect of the fungicide on dermatophytes (agar incorporation); format: cell-based; details: 120 h, pH 7.1, 25°, 5 days, read-out: Minimum Inhibitory Concentration, MIC
Protocol: (§1) These were recent clinical isolates and were cultivated at 25° C. on agar containing the following ingredients in grams per liter:
(§2) Mycelia from the 3 fungi were disintegrated with sterile glass beads in sterile water and 1 drop applied to the center petri dishes containing the same agar as above but to which was added Phaeoramularia fungicide. The fungicide was added at a concentration of from 0.5 μg/ml to 5 μg/ml of the eluate described under "Extraction of the active principle." Griseofulvin was used in comparison. Controls were prepared with the same agar but devoid of fungicide. Five (5) replicates were made for each test.

T. mentagrophytes = test: as above; format: cell-based; details: Trichophyton mentagrophytes, 120 h, pH 7.1, 25°, 5 days, read-out: Minimum Inhibitory Concentration, MIC
Protocol: as §1, §2

Trichophyton rubrum = test: as above; format: cell-based; details: 120 h, pH 7.1, 25°, 5 days, read-out: Minimum Inhibitory Concentration, MIC
Protocol: as §1, §2

CCNc1nc(Cl)nc(NC(C)C)n1 [Atrazine]
effect of herbicide on Botrytis (Botrytis): no effect

COc1nc(C)nc(NC(=O)NS(=O)(=O)c2ccccc2Cl)n1 [Chlorsulfuron]
effect of herbicide on Botrytis (Botrytis): no effect

CCNc1nc(Cl)nc(NCC)n1 [Simazine]
effect of herbicide on Botrytis (Botrytis): no effect

COc1c(CC(C)O)c2c3c(CC(C)O)c(OC)c(=O)c4c(O)cc5c(c6c(cc(O)c(c1=O)c62)OCO5)c43 (stereo not drawn) [cercosporin]
inhibition of growth (Staphylococcus aureus): inhibit the growth | inhibition of growth (Bacillus subtilis): inhibit the growth | inhibition of growth (Pseudomonas aeruginosa): inhibit the growth | inhibition of growth (E. coli): inhibit the growth | inhibition of growth (Candida japonica): inhibit the growth | inhibitory effect on certain microorganisms (certain microorganisms): inhibitory effect

COC1=CC(=O)C[C@@H](C)[C@]12Oc1c(Cl)c(OC)cc(OC)c1C2=O [griseofulvin]
MIC (Microsporum canis): 3 µg/mL (≈ 8.5 µM) | MIC (T. mentagrophytes): 10 µg/mL (≈ 28.3 µM) | MIC (Trichophyton rubrum): 1.5 µg/mL (≈ 4.25 µM)
